In PubChem BioAssay (NCI):
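These data come from cells grown in 96-well plates and exposed to compound for 48 hours at five concentrations. TGI: total growth inhibition.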

Columns and labels:
Assay in all cases: NCI tumour cell line growth inhibition, 48 h
[1] = system: HCC-2998 colon
[2] = system: SK-MEL-2 melanoma
[3] = system: MOLT-4 leukemia
[4] = system: SK-MEL-28 melanoma
[5] = system: SK-OV-3 ovarian
[6] = system: RXF 393 renal
[7] = system: HL-60(TB) leukemia
[8] = system: SW-620 colon
[9] = system: SNB-75 CNS
[10] = system: NCI-H522 lung
[11] = system: HCT-116 colon
[12] = system: CCRF-CEM leukemia
[13] = system: 786-0 renal
[14] = system: MALME-3M melanoma
[15] = system: LOX IMVI melanoma
[16] = system: U251 CNS
[17] = system: OVCAR-4 ovarian
[18] = system: NCI-H226 lung
[19] = system: TK-10 renal
[20] = system: SNB-19 CNS
[21] = system: DLD-1 colon
[22] = system: HT29 colon
[23] = system: SF-539 CNS
[24] = system: A549 NSCLC
[25] = system: XF 498 CNS
[26] = system: KM20L2 colon
[27] = system: ACHN renal
[28] = system: SN12C renal
[29] = system: K-562 leukemia
[30] = system: UACC-257 melanoma
[31] = system: HCT-15 colon
[32] = system: HOP-92 NSCLC
[33] = system: DMS 273 small cell lung
[34] = system: OVCAR-8 ovarian
[35] = system: SNB-78 CNS
[36] = system: KM12 colon
[37] = system: M14 melanoma
[38] = system: M19-MEL melanoma
[39] = system: LXFL 529 NSCLC
[40] = system: SF-268 CNS
[41] = system: HOP-62 NSCLC
[42] = system: NCI-H23 lung
[43] = system: COLO 205 colon
[44] = system: RPMI-8226 leukemia
[45] = system: OVCAR-3 ovarian
[46] = system: IGROV1 ovarian
[47] = system: SK-MEL-5 melanoma
[48] = system: EKVX NSCLC
[49] = system: NCI-H460 lung
[50] = system: DMS 114 small cell lung
[51] = system: SR leukemia
[52] = system: SF-295 CNS
[53] = system: A498 renal
[54] = system: UACC-62 melanoma
[55] = system: OVCAR-5 ovarian
[56] = system: HOP-18 NSCLC
[57] = system: UO-31 renal
[58] = system: CAKI-1 renal

Compound CC1=CC2=C(C)C3(CC3)[C@@](C)(O)C(=O)C2=C1 has a TGI [1] of 0.406 µM, a TGI [2] of 0.365 µM and a TGI [3] of over 1 µM. It also gave a TGI [4] of 0.394 µM, a TGI [5] of 0.799 µM and a TGI [6] of 0.246 µM. For the same compound, the TGI [7] was 0.587 µM, the TGI [8] was over 1 µM and the TGI [9] was 0.425 µM. For the same compound, the TGI [10] was 0.296 µM, the TGI [11] was 0.357 µM and the TGI [12] was over 1 µM. It also gave a TGI [13] of 0.517 µM, a TGI [14] of 0.424 µM and a TGI [15] of 0.594 µM. It also gave a TGI [16] of 0.507 µM, a TGI [17] of 0.356 µM and a TGI [18] of 0.492 µM. For the same compound, the TGI [19] was 0.89 µM, the TGI [20] was 0.545 µM and the TGI [21] was over 0.935 µM. The TGI [22] was 0.803 µM, the TGI [23] was 0.47 µM and the TGI [24] was over 0.975 µM. The TGI [25] was 0.341 µM, the TGI [26] was 0.498 µM and the TGI [27] was 0.379 µM. For the same compound, the TGI [28] was 0.557 µM, the TGI [29] was over 1 µM and the TGI [30] was 0.578 µM. It also gave a TGI [31] of 0.454 µM, a TGI [32] of 0.692 µM and a TGI [33] of 0.696 µM. It also gave a TGI [34] of 0.706 µM, a TGI [35] of over 0.631 µM and a TGI [36] of over 0.918 µM. The TGI [37] was 0.393 µM, the TGI [38] was 0.732 µM and the TGI [39] was 0.783 µM. The TGI [40] was 0.456 µM, the TGI [41] was 0.356 µM and the TGI [42] was 0.186 µM. For the same compound, the TGI [43] was 0.584 µM, the TGI [44] was over 1 µM and the TGI [45] was 0.352 µM. The TGI [46] was over 0.979 µM, the TGI [47] was 0.294 µM and the TGI [48] was 0.992 µM. The TGI [49] was 0.431 µM, the TGI [50] was 0.313 µM and the TGI [51] was over 1 µM. For the same compound, the TGI [52] was 0.571 µM, the TGI [53] was 0.505 µM and the TGI [54] was 0.44 µM. It also gave a TGI [55] of 0.454 µM, a TGI [56] of 0.528 µM and a TGI [57] of 0.337 µM. The TGI [58] was 0.744 µM.
